System: NADPH oxidase
Assay: NADPH-oxidase activity in pollution-exposed fibroblasts (Example 6)
Type: cell-based, human
Procedure: Method: Cells are incubated for 30 minutes with the test elements (either pollutant or Composition A). NADPH oxidase activity is determined immediately using chemioluminescence. Conditions: Untreated and unexposed to pollution, Untreated and exposed to pollution and Treated with personal care composition and exposed to pollution. As a comparison to the personal care composition, niacinamide was tested at low concentration (“niacinamide (low)”) and high concentration (“niacinamide (high)”) in DMSO. (The high niacinamide concentration was 6.67 times the low niacinamide concentration.) Composition B was diluted until its niacinamide concentration was the same as the niacinamide (low) concentration. The cells used in the study were human primary fibroblasts originating from a healthy donor. As in Example 5, the pollutant was urban standardized particles composed with metals, polyaromatic hydrocarbons (PAHs), nitro-PAHs, PCBs, chlorinated pesticide, etc., of micrometric diameter. NADPH-oxidase activity and mitochondrial associated membranes (MAMs) were experimentally determined and quantified in the same manner as in Example 5.

## niacinamide
Niacinamide (high) concentration, 6.67 times the low
  NADPH oxidase activity relative to NE-NTC: level below that observed in NE-NTC
Niacinamide (low) concentration, Composition B diluted to the same niacinamide concentration
  NADPH oxidase activity relative to NE-NTC: level similar to that observed in the NE-NTC
